The subject of one series is β-galactosidase (β-Gal). As to conditions: lyophilization cycles; β-Gal 0.1 mg/mL; 7500 equiv of trehalose.
The target of series [1] is T1, hen egg white lysozyme (Gallus gallus, UniProt P00698).
T1 construct: reconstituting hen egg white lysozyme (0.1 mg/mL, DPBS, pH 7.4) as received without further purification; purchased Sigma-Aldrich; host or cells: hen egg white
Put plainly: Lyophilization stability activity assay (10 lyophilization cycles, EnzChek lysozyme activity). Type of series: biochemical. Here is the method: (§1) Lysozyme-glycopolymer conjugate (Lyz-6). To a 1.5 mL Lo-Bind® centrifuge tube was added thiopropionyl hen egg white lysozyme (LyzSH) (70 μL, 10 mg/mL, DPBS, pH 8.0) and 6 (16 mg, 0.71 μmol, 15 eq) and the entire reaction was diluted to a final volume of 500 μL (DPBS, pH 8.0) before storage at 4° C. for 3 hours. The resulting mixture was purified by FPLC (50 mM PB, 150 mM NaCl, pH 7.4), fractions were concentrated by centriprep ultrafiltration (MWCO 3 kDa, DPBS, pH 7.4) and stored at 4° C. Samples were diluted 5 fold before the EnzChek® lysozyme activity assay was employed to measure fraction activity. In a typical assay 50 μL of diluted sample was incubated with 50 μL of Micrococcus luteus labeled with FITC (1 mg/mL) at 37° C. for 1 hour. Subsequently, fluorescence of lysed cell membrane and thus lysozyme activity was measured as FITC fluorescence (abs 480 nm/em 530 nm) and quantified relative to known standards.
Wild-type lysozyme was prepared by reconstituting hen egg white lysozyme (0.1 mg/mL, 1 eq, DPBS, pH 7.4) as received without further purification. Samples were further diluted to 0.021 mg/mL (1 kU/mL) in 20 μL aliquots prior to application of lyophilization or thermal insults.
Wild-type lysozyme samples mixed with glyco-polymer were prepared by adding trehalose polymer (Poly 5-8, 1 or 100 eq relative to lysozyme) to a solution of lysozyme (0.1 mg/mL, DPBS, pH 7.4) before storage at 4° C. Samples were further diluted to a lysozyme concentration of 0.021 mg/mL (1 kU/mL) in 20 μL aliquots prior to application of lyophilization or thermal insult.
Wild-type lysozyme samples mixed with trehalose were prepared by adding trehalose (1 or 100 eq relative to the number of trehalose monomer units in Poly 5-8) to a solution of lysozyme (0.1 mg/mL, DPBS, pH 7.4) before storage at 4° C. […]
Wild-type lysozyme was prepared by reconstituting hen egg white lysozyme (0.1 mg/mL, DPBS, pH 7.4) as received without further purification. […] Statistics were calculated utilizing the Students t test; % confidence as +/−=t*(standard deviation)/(number of trials)^(½) with p<1−% confidence/100.

For series [2], the system named is horseradish peroxidase (HRP). Put plainly: Horseradish peroxidase stabilization at 70° C. (TMB activity). Conditions: 70° C. for 30 min; HRP 75 μg/mL; 7500 equivalent of trehalose. The class given is biochemical. The procedure:
The activity of horseradish peroxidase (HRP) after exposure to a temperature of 70° C. for 30 minutes was tested, and the results are provided in FIG. 28. The activity of HRP was tested through reaction with 3,3′,5,5′-tetramethylbenzidine (TMB), which produces a blue by-product. HRP samples were prepared without any additive, with 100 equivalent of P1-P4, or 7500 equivalent of trehalose, which is equal to the trehalose in the P1 sample. Heated samples were then tested for HRP reactivity and the percent original activities were calculated using same concentration of HRP without heating and additive (FIG. 28). After heating, HRP in solution without any additive, only 46% of the original activity was observed. […] The same concentration of trehalose maintained only 80% of HRP activity. All samples were repeated six times and their p value compared with no additive were <0.001.
Horseradish Peroxidase Stabilized by P1-P4 at 70° C. […] Stock solutions of 100 equiv of P1, P2, P3 and P4 and 7500 equiv of trehalose were also prepared in the same buffer. 2 μL aliquots of HRP solution were mixed with 2 μL aliquots of each polymer and trehalose solution to give final concentration of 75 μg/mL HRP or with only buffer. […] The assay was repeated 6 times following the know procedure with tetramethylbenzemidine (TMB).

Series [3] addresses T1, hen egg white lysozyme. Put plainly: Thermo-stability (heat burden) assay, 90° C., EnzChek lysozyme activity. The class given is biochemical. The procedure: as §1, with “standards. […]” for “standards.”
Wild-type lysozyme was prepared by reconstituting hen egg white lysozyme (0.1 mg/mL, DPBS, pH 7.4) as received and was stored without further purification at 4° C. in 20 μL aliquots. […] Activities of stressed samples were measured relative to identical aliquots that were not exposed to heat. […] Statistics were calculated utilizing the Students t test; % confidence as +/−=t*(standard deviation)/(number of trials)^(½) with p<1−% confidence/100.

The target of the next series is glucose oxidase (GOX) (Aspergillus niger, UniProt P13006). Put plainly: Glucose oxidase stabilization at 50° C. (Amplex Red assay). The class given is biochemical. As to conditions: 50° C. for 30 min; GOX 0.1 mg/mL; 7500 equivalent of trehalose. Here is the method: Trehalose glycopolymers P1 through P4 were also tested for glucose oxidase (GOX) stabilization against 50° C. heat for 30 min. The activity of GOX was evaluated using Amplex® Red Glucose/Glucose Oxidase Assay Kit (Invitrogen). GOX reacts with D-glucose to form H2O2, which can then react with the Amplex® in the presence of horseradish peroxidase (HRP) to generate resorufin and can be detected by fluorescence. GOX samples were prepared without any additive, with 100 equivalent of P1-P4, and 7500 equivalent of trehalose, which is equal to the number of repeating units in the P1. All samples were heated to 50° C. for 30 min and repeated six times. Heated samples were then tested for GOX reactivity and percent original activities were calculated using same concentration of GOX without heating and additive (FIG. 29).
2 μL aliquots of GOX solution were mixed with 2 μL aliquots of each polymer and trehalose solution or buffer only to give the final concentration of 0.1 mg/mL GOX. […] Activity was measured using Amplex® Red Glucose/Glucose Oxidase Assay kit following the product manual procedures.

The target of series [4] is Recombinant Human Insulin (Homo sapiens, UniProt P01308). Put plainly: Insulin stabilization at 90° C. (native gel). Conditions: 90° C. for 1 h; insulin 1 mg/mL; 750 equiv of trehalose. The procedure: Prepared P1, P2, P3, and the same concentration of trehalose as an additive were tested for stabilization of insulin against heating under 90° C. for 1 h. After heating all the samples were loaded on the native gel (FIG. 30). Insulin without any additive was denatured and the band was almost gone in native gel. […] The MALDI-TOF data provides that insulin, originally 5.8 kDa, denatures into mainly two fragments after heating (data not shown). This is due to the breakage of two disulfide bridges liking a and β chain of insulin.
Insulin was dissolved in pH 7.4 D-PBS buffer (1 mg/mL). The samples were prepared by adding 10 equiv of P1, P2, and P3 or 750 equiv of trehalose into the insulin solution. […] Other samples with polymers or trehalose were heated as 90° C. for 1 h and ran through the native gel.

The values below come from US9901648B2, “Stabilization of biomolecules using sugar polymers” (THE REGENTS OF THE UNIVERSITY OF CALIFORNIA, priority 2012, dated 2018).

T1 sequence (P00698 19-147): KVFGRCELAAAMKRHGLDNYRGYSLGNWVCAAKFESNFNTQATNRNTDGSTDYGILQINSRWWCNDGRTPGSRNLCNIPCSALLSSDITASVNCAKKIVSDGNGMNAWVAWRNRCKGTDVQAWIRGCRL
Chain of glucose oxidase (GOX) (P13006 17-605, species assumed): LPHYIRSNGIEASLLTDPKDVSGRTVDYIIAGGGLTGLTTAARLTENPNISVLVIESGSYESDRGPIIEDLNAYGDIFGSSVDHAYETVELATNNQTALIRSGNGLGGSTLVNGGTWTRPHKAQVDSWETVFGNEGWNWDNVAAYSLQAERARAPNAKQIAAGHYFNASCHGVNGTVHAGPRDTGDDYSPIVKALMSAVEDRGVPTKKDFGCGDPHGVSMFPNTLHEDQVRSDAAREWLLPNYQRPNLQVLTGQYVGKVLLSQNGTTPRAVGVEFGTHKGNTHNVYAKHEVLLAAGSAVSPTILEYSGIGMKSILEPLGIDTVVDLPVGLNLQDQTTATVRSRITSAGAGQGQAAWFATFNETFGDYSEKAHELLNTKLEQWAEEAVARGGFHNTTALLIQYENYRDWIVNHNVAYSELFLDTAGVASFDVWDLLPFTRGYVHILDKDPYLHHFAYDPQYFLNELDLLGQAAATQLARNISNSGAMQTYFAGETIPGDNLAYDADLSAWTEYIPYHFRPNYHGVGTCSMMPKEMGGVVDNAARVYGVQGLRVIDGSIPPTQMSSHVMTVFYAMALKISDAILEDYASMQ
Chain of Recombinant Human Insulin (P01308 25-54 limits assumed): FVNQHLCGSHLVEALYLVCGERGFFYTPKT
Chain of Recombinant Human Insulin (P01308 90-110 limits assumed): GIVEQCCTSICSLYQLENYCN
Experimental for β-galactosidase (β-Gal): The stabilization of β-galactosidase (β-Gal) was also tested after multiple lyophilization cycles. β-Gal is known to be easily denatured by lyophilization or freeze-thaw cycles (Pikal-Cleland and Capenter, 2001). Activity of β-Gal was measured by reacting with o-nitrophenyl-β-D-galactoside (ONPG), which releases o-nitrophenol, a yellow color product that absorbs light at 420 nm.
0.4 mg/mL P3-Gal solution was prepared in pH 7.0 10 mM sodium phosphate buffer. 50 μL aliquots of β-Gal solution were mixed with 150 μL of buffer or 150 μL of polymer (100 equiv) or trehalose (7500 equiv) in H2O to result 0.1 mg/mL protein solution. Aliquots of each sample were frozen by immersion in liquid nitrogen before lyophilization. The samples were lyophilized for 12 h for one cycle under 1 mbar. After each cycle 200 μL of H2O was added and the lyophilization repeated for 3 cycles and 4 cycles. The control was stored in 4° C. until the activity assay was performed. The assay includes 6 repeats by reacting with o-nitrophenyl-β-D-galactoside (ONPG).

For the compound `OC[C@H]1O[C@H](O[C@H]2O[C@H](CO)[C@@H](O)[C@H](O)[C@H]2O)[C@H](O)[C@@H](O)[C@@H]1O` [trehalose], in the series on β-galactosidase (β-Gal), the “β-Gal original activity maintained” value was 45%. For the same compound, the “retention of lysozyme activity with added trehalose” value on hen egg white lysozyme [1] (trehalose at equivalent concentrations to that in the 100-fold polymers) was 18-31%. Besides, the “percent original HRP activity” value in series [2] amounted to 80%. For the same compound, the “activity retention with added trehalose” value on hen egg white lysozyme [3] (90° C. for 1 hour, highest trehalose concentration (100 eq Poly8 monomer units)) is 31%. At glucose oxidase (GOX), the “percent original GOX activity” value worked out at 72%. In addition, the “insulin band on native gel after heating” value in series [4] is recorded as “greatly reduced”.

Regarding “wild-type lysozyme: hen egg white lysozyme reconstituted as received, unmodified”, in the series with hen egg white lysozyme [1] (0.1 mg/mL, DPBS pH 7.4, conjugate or protein alone, no additive), the “activity relative to unexposed sample stored at 4° C.” value is recorded as about 20%. For the same compound, the “retention of original activity” value with hen egg white lysozyme [1] (lysozyme 0.021 mg/mL (1 kU/mL), conjugate or protein alone) was 16%. The “remaining activity after heat burden” value in the series with hen egg white lysozyme [3] (90° C. for 3 hours, 0.1 mg/mL, conjugate or protein alone) is reported as “no activity remained”.
